Laboratory results from PMC6216040, “Repurposing of an old drug: In vitro and in vivo efficacies of buparvaquone against Echinococcus multilocularis” (International Journal for Parasitology: Drugs and Drug …, 2018).

Test system: E. multilocularis metacestodes
Assay: PGI-assay: drug-induced damage on in vitro cultured metacestodes (Pathogen Box screening cascade and EC50)
Assay type: cell-based, Echinococcus multilocularis
Conditions: for PGI release, % of the Tx-100 control, 5d / PGI release, % of the Tx-100 control, 12d: 10 µM, singlets; for PGI release, % of the Tx-100 control, 5d / PGI release, % of Tx-100 control, average, 5d: 5 days of incubation; for PGI release, % of the Tx-100 control, 12d / PGI release, % of Tx-100 control, average, 12d: 12 days of incubation; for PGI release, % of Tx-100 control, average, 5d / PGI release, % of Tx-100 control, average, 12d: confirmatory screening at 10 µM in triplicates, values as % of Tx-100 control

SMILES: CC(C)NCC(=O)Nc1cccc(C(=O)Nc2cccc(C(F)(F)F)c2)c1 [MMV020165]
- PGI release, % of the Tx-100 control, 5d: 0.28%
- PGI release, % of the Tx-100 control, 12d: -0.10%

SMILES: Cc1ccc(NC(=O)c2cc(S(=O)(=O)NC(C)(C)C)ccc2C)nc1 [MMV020289]
- PGI release, % of the Tx-100 control, 5d: -0.85%
- PGI release, % of the Tx-100 control, 12d: -0.97%

SMILES: CC(C(=O)N1CCCC1)N1CCN(S(=O)(=O)c2ccc(C(C)(C)C)cc2)CC1 (centres unmarked) [MMV020291]
- PGI release, % of the Tx-100 control, 5d: -0.20%
- PGI release, % of the Tx-100 control, 12d: -0.67%

SMILES: Cc1nnc(NC(=O)c2cn(-c3ccccc3)nc2-c2ccccc2C)o1 [MMV020320]
- PGI release, % of the Tx-100 control, 5d: -1.15%
- PGI release, % of the Tx-100 control, 12d: 2.11%

SMILES: COc1ccccc1C(C)NCC(=O)Nc1cc(C(F)(F)F)ccc1Cl (centres unmarked) [MMV020321]
- PGI release, % of the Tx-100 control, 5d: 0.0279%
- PGI release, % of the Tx-100 control, 12d: 2.67%

SMILES: CC1CCCN(C(=O)C(C)Nc2cc(Cl)ccc2N2CCOCC2)C1 (centres unmarked) [MMV020388]
- PGI release, % of the Tx-100 control, 5d: -0.77%
- PGI release, % of the Tx-100 control, 12d: -1.83%

SMILES: CC(C)C(C(=O)Nc1ccc(S(=O)(=O)N(C)C)cc1)c1ccc(Cl)cc1 (centres unmarked) [MMV020391]
- PGI release, % of the Tx-100 control, 5d: -0.90%
- PGI release, % of the Tx-100 control, 12d: -4.50%

SMILES: Cc1ccc(Oc2ccc(NC(=O)CNc3ccccc3N3CCCC3=O)cc2)cc1 [MMV020512]
- PGI release, % of the Tx-100 control, 5d: 0.61%
- PGI release, % of the Tx-100 control, 12d: 1.80%

SMILES: COc1ccccc1CNC(=O)c1cc(C2CC2)nc2c1cnn2C(C)C [MMV020517]
- PGI release, % of the Tx-100 control, 5d: -0.60%
- PGI release, % of the Tx-100 control, 12d: -1.00%

SMILES: Cc1cc2ccccc2n1CC(=O)N1CC(C(=O)N2CCCCC2)Oc2ccccc21 (centres unmarked) [MMV020520]
- PGI release, % of the Tx-100 control, 5d: -0.40%
- PGI release, % of the Tx-100 control, 12d: -0.48%

SMILES: O=C(NC1CC1)c1ccc(N2CCOc3ccc(Cl)cc32)s1 [MMV020537]
- PGI release, % of the Tx-100 control, 5d: 1.89%
- PGI release, % of the Tx-100 control, 12d: 0.98%

SMILES: CC(C)C(NC(=O)Cc1cccc2ccccc12)C(=O)Nc1cccc(C#N)c1 (centres unmarked) [MMV020591]
- PGI release, % of the Tx-100 control, 5d: -0.00326%
- PGI release, % of the Tx-100 control, 12d: 0.72%

SMILES: Cc1noc(C)c1C(=O)N1CCCC(c2[nH]c3c(C)cccc3c2-c2ccncc2)C1 (centres unmarked) [MMV020623]
- PGI release, % of the Tx-100 control, 5d: -0.37%
- PGI release, % of the Tx-100 control, 12d: -4.10%

SMILES: COc1ccc(-c2cncc3ccc(C(=O)NCCCn4ccnc4)nc23)cc1 [MMV020670]
- PGI release, % of the Tx-100 control, 5d: 0.79%
- PGI release, % of the Tx-100 control, 12d: -1.21%

SMILES: COc1ccc(Cl)cc1NC(=O)CN(C)C(=O)c1cnn(-c2ccccc2)n1 [MMV020710]
- PGI release, % of the Tx-100 control, 5d: -1.15%
- PGI release, % of the Tx-100 control, 12d: -0.53%

SMILES: CC(C)(C)c1cc(C(=O)Nc2cccnc2)cc(C(=O)Nc2cccnc2)c1 [MMV020982]
- PGI release, % of the Tx-100 control, 5d: 1.45%
- PGI release, % of the Tx-100 control, 12d: 12.41%

SMILES: CO/C=C(/C(=O)OC)c1ccccc1Oc1cc(Oc2ccccc2C#N)ncn1 [MMV021057, Azoxystrobin]
- PGI release, % of the Tx-100 control, 5d: -0.65%
- PGI release, % of the Tx-100 control, 12d: -0.77%

SMILES: Cc1cc(NCC(C)C)c2[nH]nc(-c3ccccc3)c2n1 [MMV021375]
- PGI release, % of the Tx-100 control, 5d: -3.66%
- PGI release, % of the Tx-100 control, 12d: 7.43%

SMILES: Cc1cc(NCCc2ccccc2)nc(NC(=N)Nc2ccc(Cl)cc2)n1 [MMV021660]
- PGI release, % of the Tx-100 control, 5d: 5.66%
- PGI release, % of the Tx-100 control, 12d: 4.49%

SMILES: CN1CCC(NCc2cccc(-c3ccc(S(=O)(=O)NCc4ccccc4)cc3)c2)CC1 [MMV022029]
- PGI release, % of the Tx-100 control, 5d: 0.43%
- PGI release, % of the Tx-100 control, 12d: 0.82%

SMILES: CCN(CC)CCCN1CCN(C(=O)c2cccc(-c3noc(C(F)(F)F)n3)c2)CC1 [MMV022236]
- PGI release, % of the Tx-100 control, 5d: -0.66%
- PGI release, % of the Tx-100 control, 12d: -2.62%

SMILES: O=C(Nc1ccc(N2CCNCC2)cc1)c1ccn2ncc(-c3cccc(Cl)c3)c2n1 [MMV022478]
- PGI release, % of the Tx-100 control, 5d: 20.71%
- PGI release, % of the Tx-100 control, 12d: 24.08%
- PGI release, % of Tx-100 control, average, 5d: 17.77%
- PGI release, % of Tx-100 control, average, 12d: 19.68%

SMILES: c1ccc2c(c1)CN(CC1CC1)CC1(CCN(Cc3c[nH]c4cnccc34)CC1)O2 [MMV023183]
- PGI release, % of the Tx-100 control, 5d: -0.64%
- PGI release, % of the Tx-100 control, 12d: -1.24%

SMILES: Cc1nc(-c2cccc(NCc3ccccc3)c2)[nH]c1C [MMV023227]
- PGI release, % of the Tx-100 control, 5d: 0.40%
- PGI release, % of the Tx-100 control, 12d: 0.67%

SMILES: Nc1nccc2ccc(-c3ccc4nccn4c3)cc12 [MMV023233]
- PGI release, % of the Tx-100 control, 5d: -0.34%
- PGI release, % of the Tx-100 control, 12d: -0.36%

SMILES: Nc1ncc(-c2cn[nH]c2)cc1-c1nc2cc(Cl)cnc2[nH]1 [MMV023370]
- PGI release, % of the Tx-100 control, 5d: -2.33%
- PGI release, % of the Tx-100 control, 12d: -3.72%

SMILES: O=C(NC1CCN(c2ccnc3ccccc23)C1)c1cccc(C(F)(F)F)c1 (centres unmarked) [MMV023388]
- PGI release, % of the Tx-100 control, 5d: -0.73%
- PGI release, % of the Tx-100 control, 12d: -1.23%

SMILES: NS(=O)(=O)c1cccc(-c2ccc3ncc(N4CCOCC4)nc3c2)c1 [MMV023860]
- PGI release, % of the Tx-100 control, 5d: -0.05%
- PGI release, % of the Tx-100 control, 12d: -0.27%

SMILES: CC(C)(C)c1cc(C(=O)N2CCN(c3nccnc3C#N)CC2)n(Cc2ccccc2)n1 [MMV023949]
- PGI release, % of the Tx-100 control, 5d: -0.59%
- PGI release, % of the Tx-100 control, 12d: -1.14%

SMILES: O=C(Nc1cccc(-c2ccc(NCCCN3CCCC3)nc2)c1)c1ccccc1 [MMV023953]
- PGI release, % of the Tx-100 control, 5d: -0.23%
- PGI release, % of the Tx-100 control, 12d: -3.47%

SMILES: c1cncc(NCc2ccc(-c3cc4ccncc4cc3OC3CCNCC3)s2)c1 [MMV023969]
- PGI release, % of the Tx-100 control, 5d: -3.87%
- PGI release, % of the Tx-100 control, 12d: -3.02%

SMILES: COc1ccc(-c2cnc3ccc(N4CCCC4)nn23)cc1OC [MMV023985]
- PGI release, % of the Tx-100 control, 5d: -0.66%
- PGI release, % of the Tx-100 control, 12d: -1.01%

SMILES: O=C(Nc1ccccc1)c1ccc(-c2cc3ccncc3cc2OC2CCNCC2)s1 [MMV024035]
- PGI release, % of the Tx-100 control, 5d: 1.01%
- PGI release, % of the Tx-100 control, 12d: 1.04%

SMILES: NS(=O)(=O)c1cncc(-c2ccc3nccc(-c4cn[nH]c4)c3n2)c1 [MMV024101]
- PGI release, % of the Tx-100 control, 5d: 0.37%
- PGI release, % of the Tx-100 control, 12d: 1.27%

SMILES: Cc1ccc(S(=O)(=O)n2cc(-c3ccnc(N)c3)c3cc(Br)cnc32)cc1 [MMV024114]
- PGI release, % of the Tx-100 control, 5d: 3.26%
- PGI release, % of the Tx-100 control, 12d: 5.70%

SMILES: CN(C)CCNC(=O)N1CCCN(c2ncnc3cc(-c4ccccc4)sc23)CC1 [MMV024195]
- PGI release, % of the Tx-100 control, 5d: 1.72%
- PGI release, % of the Tx-100 control, 12d: 5.34%

SMILES: Cc1ccc2[nH]c(C3CCCNC3)c(-c3ccncc3)c2c1 (centres unmarked) [MMV024311]
- PGI release, % of the Tx-100 control, 5d: -0.16%
- PGI release, % of the Tx-100 control, 12d: -1.97%

SMILES: O=C(NC1CC1)c1ccc(N2CCC(Cc3ccccc3)CC2)nc1 [MMV024397]
- PGI release, % of the Tx-100 control, 5d: 0.75%
- PGI release, % of the Tx-100 control, 12d: 37.30%
- PGI release, % of Tx-100 control, average, 5d: 0.18%
- PGI release, % of Tx-100 control, average, 12d: -0.13%

SMILES: O=C(Nc1cccc(Cl)c1)c1cnc(N2CCN(c3ccncc3)CC2)c(Cl)c1 [MMV024406]
- PGI release, % of the Tx-100 control, 5d: 4.18%
- PGI release, % of the Tx-100 control, 12d: 4.57%

SMILES: CN(C(=O)c1cc2c(-c3cncnc3)cccc2[nH]1)c1ccccc1 [MMV024443]
- PGI release, % of the Tx-100 control, 5d: -1.32%
- PGI release, % of the Tx-100 control, 12d: 3.28%

SMILES: Cc1cccc(C(=O)Nc2ccnc(N(C)C3CCN(CC(C)C)CC3)c2)c1 [MMV024829]
- PGI release, % of the Tx-100 control, 5d: 0.62%
- PGI release, % of the Tx-100 control, 12d: -0.07%
